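Cells were grown in 96-well plates and exposed to each compound for 48 hours at five concentrations; endpoints were interpolated linearly between bracketing concentrations, or set to the highest concentration if not reached. GI50 = concentration required for 50% inhibition of growth. TGI denotes the concentration required for complete inhibition of growth.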
How the values were obtained:
Experiment in all cases: growth of human tumour cells (NCI), 48 h
[1] = system: A498 renal
[2] = system: A549 NSCLC
[3] = system: EKVX NSCLC
[4] = system: HCC-2998 colon
[5] = system: HCT-116 colon
[6] = system: OVCAR-4 ovarian
[7] = system: OVCAR-8 ovarian
[8] = system: RXF 393 renal
[9] = system: SK-MEL-28 melanoma
[10] = system: SW-620 colon

Structure (SMILES) | GI50 [1] | TGI [1] | GI50 [2] | TGI [2] | GI50 [3] | TGI [3] | GI50 [4] | TGI [4] | GI50 [5] | TGI [5] | GI50 [6] | TGI [6] | GI50 [7] | TGI [7] | GI50 [8] | TGI [8] | GI50 [9] | TGI [9] | GI50 [10] | TGI [10]
CS(=O)(=O)c1ccc([C@H]2O[C@@H](CO)C[C@]2(O)c2ccc(S(C)(=O)=O)cc2)cc1 | > 100 µM | > 100 µM | > 100 µM | > 100 µM | > 100 µM | > 100 µM | > 100 µM | > 100 µM | > 100 µM | > 100 µM | > 100 µM | > 100 µM | > 100 µM | > 100 µM | > 100 µM | > 100 µM | > 100 µM | > 100 µM | > 100 µM | > 100 µM
CCCCN=C(NC#N)NCCCC | – | > 100 µM | – | > 100 µM | – | > 100 µM | – | > 100 µM | – | > 100 µM | – | > 100 µM | – | > 100 µM | – | > 100 µM | – | > 100 µM | – | 42 µM
CCC[CH2][Sn]1([CH2]CCC)[O]Cc2nc(C)ccc2[O]1 | 13.3 µM | 26.8 µM | 19 µM | 33.1 µM | 4.36 µM | 18.2 µM | 7.86 µM | 21.3 µM | 12.1 µM | 24.5 µM | 3.95 µM | 17.6 µM | 9.1 µM | 21.7 µM | 8.15 µM | 19.9 µM | 10.6 µM | 22.4 µM | 2.81 µM | 12.1 µM
COc1cc(C2=C(c3ccccc3)COC2=O)cc(OC)c1OC | 6.87 µM | > 66.1 µM | 6.78 µM | > 58.7 µM | > 31.8 µM | > 100 µM | 1.27 µM | 5.97 µM | 2.29 µM | > 38.1 µM | 38.9 µM | > 100 µM | 5.04 µM | > 51.4 µM | 1.56 µM | > 100 µM | > 100 µM | > 100 µM | 1.68 µM | > 100 µM
NC(CCC(=O)NC(CSSCCCCS(=O)O)C(=O)NCC(=O)O)C(=O)O (stereo not given) | – | > 100 µM | – | > 100 µM | – | > 100 µM | – | > 100 µM | – | > 100 µM | – | > 100 µM | – | > 100 µM | – | > 100 µM | – | > 100 µM | – | > 100 µM
CC1(C)OC2[C@@H](CNC(=O)NC(=O)NC(=O)CI)O[C@@H](n3cnc4c(NC(=O)Nc5ccccc5)ncnc43)[C@H]2O1 (stereo not given in full) | 18 µM | > 50 µM | > 50 µM | > 50 µM | 28.4 µM | > 50 µM | 9.29 µM | 19.7 µM | 10.7 µM | 25.4 µM | 7.16 µM | 21 µM | 9.45 µM | 22.7 µM | 6.96 µM | 13.6 µM | 8.53 µM | 16 µM | 2.08 µM | 8.13 µM
